Assay results: PubChem BioAssay AID330 (DTP/NCI, 2004)
Values joined by “and” are separate entries in the source; they are usually repeats but may differ in a detail not shown here. Equal values may be shown once. Inconclusive results and toxic doses are left out.

Test system: P388 leukemia ip, CD2F1 mice, survival T/C
Test: NCI In Vivo Anticancer Drug Screen. Data for tumor model P388 Leukemia (intraperitoneal) in CD2F1 (CDF1) mice
Details: endpoint: median survival time, higher = longer survival
How it was run: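 Mice carrying the transplanted tumor received test compound or vehicle. Survival was recorded in each group, and the value is the treated-group measurement divided by that of the vehicle-treated control group.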

[1] = dose: 100.0 mg/kg/injection, schedule: Q04DX003 (ip), vehicle: Klucel (hydroxypropylcellulose) (HPC)
[2] = dose: 200.0 mg/kg/injection, schedule: Q04DX003 (ip), vehicle: Klucel (hydroxypropylcellulose) (HPC)
[3] = dose: 400.0 mg/kg/injection, schedule: Q04DX003 (ip), vehicle: Klucel (hydroxypropylcellulose) (HPC)
[4] = dose: 25.0 mg/kg/injection, schedule: Q01DX005 (ip), vehicle: Klucel (hydroxypropylcellulose) (HPC)
[5] = dose: 60.0 mg/kg/injection, schedule: Q01DX005 (ip), vehicle: saline with Tween-80
[6] = dose: 120.0 mg/kg/injection, schedule: Q01DX005 (ip), vehicle: saline with Tween-80
[7] = dose: 240.0 mg/kg/injection, schedule: Q01DX005 (ip), vehicle: saline with Tween-80
[8] = dose: 50.0 mg/kg/injection, schedule: Q01DX009 (ip), vehicle: saline with Tween-80
[9] = dose: 100.0 mg/kg/injection, schedule: Q01DX009 (ip), vehicle: saline with Tween-80
[10] = dose: 200.0 mg/kg/injection, schedule: Q01DX009 (ip), vehicle: saline with Tween-80
[11] = dose: 100.0 mg/kg/injection, schedule: Q04DX002 (ip), vehicle: saline with Tween-80
[12] = dose: 200.0 mg/kg/injection, schedule: Q04DX002 (ip), vehicle: saline with Tween-80
[13] = dose: 50.0 mg/kg/injection, schedule: Q01DX005 (ip), vehicle: saline with Tween-80
[14] = dose: 100.0 mg/kg/injection, schedule: Q01DX005 (ip), vehicle: saline with Tween-80
[15] = dose: 200.0 mg/kg/injection, schedule: Q01DX005 (ip), vehicle: saline with Tween-80
[16] = dose: 50.0 mg/kg/injection, schedule: Q01DX005 (ip), vehicle: Klucel (hydroxypropylcellulose) (HPC)
[17] = dose: 100.0 mg/kg/injection, schedule: Q01DX005 (ip), vehicle: Klucel (hydroxypropylcellulose) (HPC)
[18] = dose: 200.0 mg/kg/injection, schedule: Q01DX005 (ip), vehicle: Klucel (hydroxypropylcellulose) (HPC)
[19] = dose: 12.5 mg/kg/injection, schedule: Q01DX009 (ip), vehicle: Klucel (hydroxypropylcellulose) (HPC)
[20] = dose: 25.0 mg/kg/injection, schedule: Q01DX009 (ip), vehicle: Klucel (hydroxypropylcellulose) (HPC)
[21] = dose: 50.0 mg/kg/injection, schedule: Q01DX009 (ip), vehicle: Klucel (hydroxypropylcellulose) (HPC)

O=C(O)c1cccc2c1C1CCC2c2cccc(C(=O)O)c21
T/C [1]: 108 % of control
T/C [2]: 107 % of control
T/C [3]: 106 % of control

Nc1nnn(CCCl)n1
T/C (dose: 100.0 mg/kg/injection, schedule: Q01DX001 (ip), vehicle: Klucel (hydroxypropylcellulose) (HPC)): 88 % of control
T/C (dose: 200.0 mg/kg/injection, schedule: Q01DX001 (ip), vehicle: Klucel (hydroxypropylcellulose) (HPC)): 88 % of control

CC(C)C(=O)[O][Bi]([c]1ccccc1)[c]1ccccc1
T/C (dose: 6.25 mg/kg/injection, schedule: Q01DX005 (ip), vehicle: Klucel (hydroxypropylcellulose) (HPC)): 108 % of control and 110 % of control
T/C (dose: 12.5 mg/kg/injection, schedule: Q01DX005 (ip), vehicle: Klucel (hydroxypropylcellulose) (HPC)): 101 % of control and 113 % of control
T/C [4]: 105 % of control and 113 % of control

COc1ccc(C2c3cc4c(cc3OC3(O)CCCC(=O)C23)OCO4)cc1 (stereo not drawn)
T/C [5]: 100 % of control
T/C [6]: 100 % of control
T/C [7]: 93 % of control

CCOC(=O)C(C)(C)CN1COCC1(C)C
T/C (dose: 50.0 mg/kg/injection, schedule: Q01DX001 (ip), vehicle: saline with Tween-80): 104 % of control
T/C (dose: 100.0 mg/kg/injection, schedule: Q01DX001 (ip), vehicle: saline with Tween-80): 104 % of control
T/C (dose: 200.0 mg/kg/injection, schedule: Q01DX001 (ip), vehicle: saline with Tween-80): 118 % of control

O=C1C(Cl)=C(Nc2ccc(C#Cc3ccccc3)cc2)C(=O)C(Cl)=C1Nc1ccc(C#Cc2ccccc2)cc1
T/C [8]: 91 % of control
T/C [9]: 91 % of control
T/C [10]: 87 % of control

CCNCC1c2ccccc2-c2nc3ccccc3nc2-c2ccccc21
T/C [11]: 102 % of control
T/C [12]: 98 % of control

CCOC(=O)NOCOC
T/C (dose: 50.0 mg/kg/injection, schedule: Q01DX009 (ip), vehicle: saline): 115 % of control
T/C (dose: 100.0 mg/kg/injection, schedule: Q01DX009 (ip), vehicle: saline): 114 % of control
T/C (dose: 200.0 mg/kg/injection, schedule: Q01DX009 (ip), vehicle: saline): 109 % of control

CC(C)C(NC(=O)c1ccccc1)C(=O)O (stereo not drawn)
T/C [13]: 98 % of control
T/C [14]: 93 % of control
T/C [15]: 88 % of control

Cc1c2cc[n+](C)cc2c(C)c2c1[nH]c1ccc(O)c(-[n+]3ccccc3)c12
T/C (dose: 2.5 mg/kg/injection, schedule: Q04DX003 (ip), vehicle: saline): 113 % of control
T/C (dose: 5.0 mg/kg/injection, schedule: Q04DX003 (ip), vehicle: saline): 111 % of control

C=CCSc1nc2ccc(NCn3c(=S)sc4ccccc43)cc2s1
T/C [1]: 89 % of control
T/C [2]: 89 % of control
T/C [3]: 89 % of control

CCNCCNc1ccc(NCCNCC)c2c1C(=O)c1ccccc1C2=O
T/C (dose: 4.0 mg/kg/injection, schedule: Q01DX009 (ip), vehicle: acid diluted with saline): 157 % of control
T/C (dose: 8.0 mg/kg/injection, schedule: Q01DX009 (ip), vehicle: acid diluted with saline): 174 % of control
T/C (dose: 12.5 mg/kg/injection, schedule: Q01DX009 (ip), vehicle: other): 168 % of control
T/C (dose: 16.0 mg/kg/injection, schedule: Q01DX009 (ip), vehicle: acid diluted with saline): 166 % of control

CCOC(=O)CC(=O)Cc1oc2c(C(C)=O)c(O)c(C)c(O)c2c1C
T/C [16]: 86 % of control
T/C [17]: 87 % of control
T/C [18]: 90 % of control

C[N+](C)([O-])c1ccc(C(=O)C2CCCCC2)cc1
T/C (dose: 100.0 mg/kg/injection, schedule: Q04DX002 (ip), vehicle: saline): 101 % of control
T/C (dose: 200.0 mg/kg/injection, schedule: Q04DX002 (ip), vehicle: saline): 99 % of control
T/C (dose: 400.0 mg/kg/injection, schedule: Q04DX002 (ip), vehicle: saline): 103 % of control

COc1ccc(N2C(=O)CCSC23C(=O)N(CN2CCOCC2)c2ccccc23)cc1 (stereo not drawn)
T/C [13]: 103 % of control
T/C [14]: 106 % of control
T/C [15]: 95 % of control

Nc1nc(N)c2nc(Sc3ccc(F)cc3)c(N)nc2n1
T/C [4]: 97 % of control
T/C [16]: 94 % of control
T/C [17]: 88 % of control

COc1cccc2c1C(=O)c1c(O)c3c(c(O)c1C2=O)CC(O)(C(O)CO)CC3OC1CC(N2CCCCC2)C(O)C(C)O1 (stereo not drawn)
T/C (dose: 0.39 mg/kg/injection, schedule: Q01DX009 (ip), vehicle: water): 115 % of control
T/C (dose: 1.56 mg/kg/injection, schedule: Q01DX009 (ip), vehicle: water): 153 % of control and 157 % of control
T/C (dose: 2.4 mg/kg/injection, schedule: Q04DX003 (ip), vehicle: water): 100 % of control
T/C (dose: 4.7 mg/kg/injection, schedule: Q04DX003 (ip), vehicle: water): 106 % of control
T/C (dose: 9.4 mg/kg/injection, schedule: Q04DX003 (ip), vehicle: water): 114 % of control and 124 % of control
T/C (dose: 18.8 mg/kg/injection, schedule: Q04DX003 (ip), vehicle: water): 124 % of control
T/C (dose: 75.0 mg/kg/injection, schedule: Q04DX003 (ip), vehicle: water): 101 % of control

Cn1c(Br)c(Br)c(=O)n(C)c1=O
T/C [16]: 99 % of control
T/C [17]: 100 % of control
T/C [18]: 100 % of control

Cc1ccc2nc(CC(=O)c3ccccc3)c(CC(=O)c3ccccc3)nc2c1
T/C [5]: 93 % of control
T/C [6]: 94 % of control
T/C [7]: 96 % of control

COc1cc2c3c4c1OCc1c5c(cc(c1-4)CC3[N+](C)(C)CC2)OCO5 (stereo not drawn)
T/C (dose: 25.0 mg/kg/injection, schedule: Q01DX001 (ip), vehicle: saline): 100 % of control

CO/N=C1/OC(=O)OCC1(c1ccccc1)c1ccccc1
T/C [13]: 100 % of control
T/C [14]: 104 % of control
T/C [15]: 100 % of control

O=C(CN1C(=O)c2cccc3c(Br)ccc(c23)C1=O)c1ccc(F)cc1
T/C [13]: 87 % of control
T/C [14]: 103 % of control
T/C [15]: 89 % of control

S=c1[nH]c(N2CCOCC2)ncc1-c1ccccc1
T/C [11]: 99 % of control
T/C [12]: 99 % of control

O=c1[nH]cnc2ncnn12
T/C (dose: 25.0 mg/kg/injection, schedule: Q01DX009 (ip), vehicle: suspension in saline): 97 % of control
T/C (dose: 50.0 mg/kg/injection, schedule: Q01DX009 (ip), vehicle: suspension in saline): 93 % of control
T/C (dose: 200.0 mg/kg/injection, schedule: Q01DX009 (ip), vehicle: suspension in saline): 90 % of control

CCOC(=O)C1(Br)CCCCC1Br (stereo not drawn)
T/C (dose: 25.0 mg/kg/injection, schedule: Q01DX009 (ip), vehicle: saline with Tween-80): 108 % of control and 111 % of control
T/C [8]: 115 % of control and 118 % of control
T/C [9]: 113 % of control and 118 % of control and 119 % of control

CN(C)c1ccc(C(=O)C2CCCC(C)(C)C2)cc1 (stereo not drawn)
T/C [1]: 98 % of control
T/C [2]: 99 % of control
T/C [3]: 91 % of control

COC(=O)c1cc(=O)n(-c2ccccc2C(F)(F)F)c(SC)n1
T/C (dose: 50.0 mg/kg/injection, schedule: Q04DX003 (ip), vehicle: Klucel (hydroxypropylcellulose) (HPC)): 95 % of control and 97 % of control
T/C [1]: 99 % of control and 100 % of control
T/C [2]: 104 % of control and 111 % of control
T/C [3]: 110 % of control

CC1=NC(C#N)=C(C#N)N=C(C)C1
T/C [19]: 93 % of control
T/C [20]: 94 % of control
T/C [21]: 93 % of control

C=C1C(=O)OC2CC1C(OC(=O)/C=C/c1ccccc1)C/C(C)=C/CC/C(C)=C/CCC2(C)O (stereo not drawn)
T/C [19]: 113 % of control
T/C [20]: 113 % of control
T/C [21]: 118 % of control
T/C (dose: 100.0 mg/kg/injection, schedule: Q01DX009 (ip), vehicle: Klucel (hydroxypropylcellulose) (HPC)): 110 % of control

CC(=O)OC1CCC2(C)C(C1)CC(OC(C)=O)C1C2CC(OC(C)=O)C2(C)C(C(C)CC(=O)C(=O)c3ccccc3)CCC12 (stereo not drawn)
T/C [8]: 103 % of control
T/C [9]: 94 % of control
T/C [10]: 98 % of control

O=C(OCC1OC(n2ccc(=S)[nH]c2=O)C(OC(=O)c2ccccc2)C1OC(=O)c1ccccc1)c1ccccc1 (stereo not drawn)
T/C (dose: 12.5 mg/kg/injection, schedule: Q01DX005 (ip), vehicle: saline with Tween-80): 102 % of control
T/C (dose: 25.0 mg/kg/injection, schedule: Q01DX005 (ip), vehicle: saline with Tween-80): 91 % of control
T/C [13]: 91 % of control and 95 % of control
T/C [15]: 87 % of control

CC(C)c1ccc(Nc2n[nH]c(=S)s2)cc1
T/C [16]: 105 % of control
T/C [17]: 100 % of control
T/C [18]: 99 % of control
